Data published in patent US20240076347A1, “METHODS FOR PREVENTING FUNGAL INFECTIONS” (Cidara Therapeutics, Inc., priority 2016, published 2024).

Key:
C. albicans strain 529L = assay: Rat model of vulvovaginal candidiasis, vaginal lavage and tissue burden; format: in vivo, Candida albicans
Experimental: Animal Strain. Wistar rats were supplied by Harlan Laboratories UK and were specific pathogen free. Rats weighed […] at the time of surgery. Ovariectomies were performed. Rats were allowed 4-7 days recovery before transportation to the facility where the experiment was to be performed. Following arrival, rats were allowed at least 4 days acclimatization before start of the experiment. Rats weighed 100-120 g at the time of ovariectomy and were about 300 g at start of the experiment.
Pre-conditioning. Female Wistar rats underwent ovariectomy at least 10 days prior to the study commencing. They were further pre-conditioned by treatment with 5 mg/kg 17-β-estradiol administered subcutaneously (SC) every other day on Days −7, −5, −3 and −1 prior to infection with C. albicans strain 529. Estradiol treatment continued every other day throughout the study to 7 days post-infection.
Yeast Isolate. Candida albicans strain 529L was used in this chronic rat vaginal infection model.
Infection. Yeast strains were inoculated aerobically onto Sabouraud dextrose agar media (SAB) containing 0.05 mg/mL chloramphenicol and incubated at 30° C. for 48-72 h. 18-24 h prior to infection, Yeast Peptone Dextrose (YPD) broths were inoculated with 2-3 isolated colonies from agar plates and incubated overnight (37° C. on an orbital shaker). Broths containing C. albicans strain 529L were washed 3 times with sterile phosphate buffered saline (PBS) before dilution to the correct inoculum for infection. Cell counts were determined using a haemocytometer and confirmed by quantitative culture on Sabouraud dextrose agar.
Rats were infected with 0.1 mL by intravaginal administration under inhaled isoflurane anaesthesia using about 9.8×10^5 CFU/mL (9.8×10^4 CFU/Rat) C. albicans strain 529L
Treatment. […] The fluconazole treatment also started at 24 h post infection but was administered by the PO route at the dose volume and frequency shown in Table 7. The study design is further outlined in FIG. 19.
(§1) Reduction in weight and general loss of condition due to estradiol treatment are also typical in this rat model. Colonization with C. albicans was determined by quantitative culture of daily vaginal lavage samples. Rats were euthanized 9 days post infection and C. albicans determined by quantitative culture of vaginal tissue (including uterine horns).
Lavage samples were obtained on Days 1 (pre-treatment), 2, 3, 5, 7, and 9 days post infection by flushing rat vaginas 4 times with 0.1 mL pre-warmed sterile PBS. Following euthanasia, vaginal tissue including uterine horns was removed prior to weighing. Tissues were homogenized in 2 mL sterile PBS using a bead-beater. Vaginal wash and tissue homogenates were diluted appropriately then quantitatively cultured on to Sabouraud dextrose agar containing 0.05 mg/mL chloramphenicol and incubated at 37° C. for up to 72 h before being counted.
Statistical analysis. Data were analyzed using StatsDirect software (version 2.7.8) using the non-parametric Kruskal-Wallis test and if this was statistically significant all pairwise comparisons were analyzed (Conover-Inman).

Candida auris = assay: Murine model of disseminated candidiasis (immunosuppressed CD-1 mice), treatment; format: in vivo; settings: 20 mg/kg PO, 2 doses; Day 14
Experimental: Female 6-8 week old CD-1 mice were immunosuppressed with cyclophosphamide (200 mg/kg) 3 days prior to infection and 150 mg/kg 1 day post-infection. On the day of infection, mice were inoculated with 3×10^7 C. auris blastospores via the lateral tail vein. Mice were randomized into 5 groups (n=5 for colony forming units (CFU) and n=10 for survival): CD101 20 mg/kg administered by intraperitoneal (IP) injection, fluconazole 20 mg/kg administered per os (PO), amphotericin B 0.3 mg/kg IP, and a vehicle control. Treatments were administered 2 hours post-infection (Day 1) and again on Day 4 of the study for a total of 2 doses. Mice were monitored daily and a survival curve was generated. CFU groups were sacrificed on Day 8 of the study. One kidney was removed from each mouse, homogenized, plated on potato dextrose agar (PDA), and incubated at 35° C. for 2 days to determine CFU. The remaining survival mice were monitored until the end of the study (Day 14).

[1] = format: in vivo, Wistar rats; settings: rat, in vivo
Experimental: Endpoints. The rats were monitored at a frequency appropriate for their clinical condition. Rat weights were recorded at least once daily to ensure animals remained within ethical limits.
as §1

[2] = system: C. albicans SC-5314 biofilms; assay: Mature phase biofilms (treatment) on silicone elastomer discs; format: cell-based, Candida albicans; settings: 1 and 4 μg/ml
Experimental: (§2) Biofilms were formed on silicone elastomer (SE) discs using a catheter-associated-biofilm model (Chandra et al., Nature Protocols 3:1909, 2008; Chandra et al., J. […] Chandra et al., J. Dental Research 80: 903, 2001). For evaluation of activity against adhesion phase biofilms (prevention), Candida cells were adhered to catheter discs for 90 min. […] Discs incubated with fluconazole or media alone were used as controls in all experiments. […] Chandra et al., J. […] Chandra et al., J. Dental Research 80: 903, 2001). Following incubation with drugs, discs were transferred to fresh plates containing phosphate buffered saline with XTT and menadione, incubated for 3 h at 37° C. and optical density was read at 492 nm. Separate batches of biofilms were stained with fluorescent dyes (FUN1™, CONA) and observed under Confocal Scanning Laser Microscope (CSLM) to evaluate biofilm architecture and thickness (Chandra et al., Nature Protocols 3:1909, 2008; Chandra et al., J. […] Statistical analyses for all data were performed using GraphPad Prism 6 software. Drug treated groups were compared to control untreated groups using unpaired t-tests.

[3] = system: C. albicans SC-5314 biofilms; assay: Adhesion phase biofilms (prevention) on silicone elastomer discs; format: cell-based, Candida albicans; settings: 1 and 4 μg/ml
Experimental: as §2

[4] = lavage Day 1 post treatment (Day 2 post infection), 20 mg/kg PO dosed once
[5] = lavage Day 1 post treatment (Day 2 post infection), 20 mg/kg PO dosed twice
[6] = lavage Day 2 post treatment (Day 3 post infection), 20 mg/kg PO dosed once
[7] = lavage Day 2 post treatment (Day 3 post infection), 20 mg/kg PO dosed twice
[8] = lavage Day 4 post treatment (Day 5 post infection), 20 mg/kg PO dosed once
[9] = lavage Day 4 post treatment (Day 5 post infection), 20 mg/kg PO dosed twice
[10] = lavage Day 6 post treatment (Day 7 post infection), 20 mg/kg PO dosed once
[11] = lavage Day 6 post treatment (Day 7 post infection), 20 mg/kg PO dosed twice
[12] = lavage Day 8 post treatment (Day 9 post infection), 20 mg/kg PO dosed once
[13] = lavage Day 8 post treatment (Day 9 post infection), 20 mg/kg PO dosed twice
[14] = terminal vaginal tissue Day +9 post infection, 20 mg/kg PO dosed once
[15] = terminal vaginal tissue Day +9 post infection, 20 mg/kg PO dosed twice
[16] = vaginal lavage Day 1 post infection, pre-treatment, 20 mg/kg PO dosed once group
[17] = vaginal lavage Day 1 post infection, pre-treatment, 20 mg/kg PO dosed twice group

## OC(Cn1cncn1)(Cn1cncn1)c1ccc(F)cc1F [Fluconazole, fluconazole, reference compound]
C. albicans strain 529L; 20 mg/kg PO once or twice, all rats, Day 9
  terminal vaginal tissue burden: below the limit of detection
C. albicans strain 529L; Day 5 post infection, 20 mg/kg PO once or twice, all rats
  lavage burden: below the limit of detection
C. albicans strain 529L; [4]
  Group Geometric mean: 1.50 × 10^2 CFU/mL
  Log Group Geometric mean: 2.18 CFU/mL
  Log reduction from vehicle control: 1.52 CFU/mL
C. albicans strain 529L; [5]
  Group Geometric mean: 1.27 × 10^2 CFU/mL
  Log Group Geometric mean: 2.10 CFU/mL
  Log reduction from vehicle control: 1.59 CFU/mL
C. albicans strain 529L; lavage Day 2 post infection
  burden vs vehicle, statistics: neither the CD101 nor fluconazole burden was statistically different from the vehicle burden
C. albicans strain 529L; lavage Day 2 post infection, fluconazole 20 mg/kg PO
  reduction in burden: about 1.6 Log10 CFU/mL
C. albicans strain 529L; [6]
  Group Geometric mean: 1.00 CFU/mL
  Log Group Geometric mean: 0.00 CFU/mL
  Log reduction from vehicle control: 3.57 CFU/mL
C. albicans strain 529L; [7]
  Group Geometric mean: 1.49 CFU/mL
  Log Group Geometric mean: 0.17 CFU/mL
  Log reduction from vehicle control: 3.40 CFU/mL
C. albicans strain 529L; lavage Day 3 post infection, 20 mg/kg PO once or twice
  rats having burden below the limit of detection: 11/12
C. albicans strain 529L; lavage Day 3 post infection, all treatments
  burden vs vehicle, statistics: statistically different from the vehicle treatments
C. albicans strain 529L; [8]
  Group Geometric mean: 1.00 CFU/mL
  Log Group Geometric mean: 0.00 CFU/mL
  Log reduction from vehicle control: 4.22 CFU/mL
C. albicans strain 529L; [9]
  Group Geometric mean: 1.00 CFU/mL
  Log Group Geometric mean: 0.00 CFU/mL
  Log reduction from vehicle control: 4.22 CFU/mL
C. albicans strain 529L; [10]
  Group Geometric mean: 1.00 CFU/mL
  Log Group Geometric mean: 0.00 CFU/mL
  Log reduction from vehicle control: 4.18 CFU/mL
C. albicans strain 529L; [11]
  Group Geometric mean: 1.00 CFU/mL
  Log Group Geometric mean: 0.00 CFU/mL
  Log reduction from vehicle control: 4.18 CFU/mL
C. albicans strain 529L; [12]
  Group Geometric mean: 1.00 CFU/mL
  Log Group Geometric mean: 0.00 CFU/mL
  Log reduction from vehicle control: 4.30 CFU/mL
C. albicans strain 529L; [13]
  Group Geometric mean: 1.00 CFU/mL
  Log Group Geometric mean: 0.00 CFU/mL
  Log reduction from vehicle control: 4.30 CFU/mL
C. albicans strain 529L; [14]
  Group Geometric mean: 1.00 CFU/g
  Log Group Geometric mean: 0.00 CFU/g
  Log reduction from vehicle control: 5.49 CFU/g
C. albicans strain 529L; [15]
  Group Geometric mean: 1.00 CFU/g
  Log Group Geometric mean: 0.00 CFU/g
  Log reduction from vehicle control: 5.49 CFU/g
C. albicans strain 529L; [16]
  Group Geometric mean: 3.16 × 10^3 CFU/mL
  Log Group Geometric mean: 3.50 CFU/mL
  Log reduction from vehicle control: −1.06 CFU/mL
C. albicans strain 529L; [17]
  Group Geometric mean: 1.04 × 10^3 CFU/mL
  Log Group Geometric mean: 3.02 CFU/mL
  Log reduction from vehicle control: −0.58 CFU/mL
Candida auris
  percent survival at the end of the study: 0%
[1]
  tolerability: well tolerated with no adverse events observed
[2]
  biofilm architecture (CSLM): did not affect Candida biofilms
  thickness of biofilms: had no effect
[2]; 24 h, P>0.05
  biofilm metabolic activity (XTT): neither concentrations of fluconazole (1 and 4 μg/ml) affected these biofilms
[3]
  thickness of biofilms: no effect on biofilm thickness
[3]; 24 h, P>0.05
  biofilm metabolic activity (XTT): did not inhibit biofilm formation
